In patent US9951046B2, “TRPA1 modulators” (Algomedix, Inc., priority 2014, dated 2018):
Where two headings read alike, the source gives them in different places.

Target: T1, human TRPA1 (Homo sapiens, UniProt O75762)
T1 construct: expressed in transfected cells
Assay: Cell-based functional intracellular calcium ([Ca2+]i) assay, Fluo-4/Fluo-8, FlexStation, challenge with reference TRPA1 agonist (FFA, AITC or 4-HNE)
Procedure: A stable HEK293 cell line that expresses human TRPA1 in an inducible manner was employed in this assay. […] The expression of TRPA1 was induced by including 1 μg/ml doxycycline in the culture medium. For the induced cells, ruthenium red (5 μM) was also added to minimize the constitutive TRPA1 channel activity and cells were used 14-18 hrs after induction. To measure [Ca^2+]i changes, cells were seeded in wells of 96-well plates at ˜100,000 cells/well and grown for 14-18 hrs to reach confluency. To prevent cell loss from subsequent washing, the wells were treated with 20 μg/ml polyornithine (MW>30,000, Sigma, St Louis, Mo.) for >15 min and rinsed once with Hank's balanced salt solution without Mg^2+ and Ca^2+. […] In some experiments, Fluo-8-AM was used instead of Fluo-4-AM as the calcium-sensitive fluorescent probe. Probenecid (2 mM) was included in all solutions to prevent the leakage of Fluo-4 or Fluo-8 from the cells. At the end of the incubation, cells were washed three times with ECS and placed in 80 μL of the same solution. Fluorescence changes were measured using a fluid handling integrated fluorescence plate reader, FlexStation (Molecular Devices, Sunnyvale, Calif.). Stock solutions of test compounds were initially solubilized in 100% DMSO and then serially diluted to achieve the desired final concentration. […] Drugs were diluted into ECS at 2× or 3× the desired final concentrations and delivered to the sample plate by an integrated robotic 8-channel pipettor at preprogrammed time points. […] Experiments were performed at 20-25° C. For certain experiments, 0.1% BSA was included with the cells and test compounds.
The kinetic data obtained at each test concentration of drug represents a series of fluorescent intensities as a function of time.
Using a sequential addition protocol, test compounds were initially applied to the cells loaded with Fluo-4 or Fluo-8 and fluorescence changes in each well monitored for 2.5 min. The plate was read again in a kinetic mode after a 15-30 min incubation with the test compounds after obtaining baseline values (about 30 s) and subsequent addition of challenge with a reference TRPA1 agonist. Reference TRPA1 agonists in testing each compound included at least one of flufenamic acid (FFA), allyl isothiocyanate (AITC) and 4-hydroxynonenal (4-HNE).
Antagonist activity can be expressed in terms of IC50 with respect to TRPA1 and agonist activity can be expressed in terms of EC50 with respect to TRPA1.

[1] = HEK293 cells expressing human TRPA1, IC50 class after addition of reference TRPA1 agonist (FFA, AITC or 4-HNE), read-out: human TRPA1-HEK Activity

T1 sequence (O75762 whole entry): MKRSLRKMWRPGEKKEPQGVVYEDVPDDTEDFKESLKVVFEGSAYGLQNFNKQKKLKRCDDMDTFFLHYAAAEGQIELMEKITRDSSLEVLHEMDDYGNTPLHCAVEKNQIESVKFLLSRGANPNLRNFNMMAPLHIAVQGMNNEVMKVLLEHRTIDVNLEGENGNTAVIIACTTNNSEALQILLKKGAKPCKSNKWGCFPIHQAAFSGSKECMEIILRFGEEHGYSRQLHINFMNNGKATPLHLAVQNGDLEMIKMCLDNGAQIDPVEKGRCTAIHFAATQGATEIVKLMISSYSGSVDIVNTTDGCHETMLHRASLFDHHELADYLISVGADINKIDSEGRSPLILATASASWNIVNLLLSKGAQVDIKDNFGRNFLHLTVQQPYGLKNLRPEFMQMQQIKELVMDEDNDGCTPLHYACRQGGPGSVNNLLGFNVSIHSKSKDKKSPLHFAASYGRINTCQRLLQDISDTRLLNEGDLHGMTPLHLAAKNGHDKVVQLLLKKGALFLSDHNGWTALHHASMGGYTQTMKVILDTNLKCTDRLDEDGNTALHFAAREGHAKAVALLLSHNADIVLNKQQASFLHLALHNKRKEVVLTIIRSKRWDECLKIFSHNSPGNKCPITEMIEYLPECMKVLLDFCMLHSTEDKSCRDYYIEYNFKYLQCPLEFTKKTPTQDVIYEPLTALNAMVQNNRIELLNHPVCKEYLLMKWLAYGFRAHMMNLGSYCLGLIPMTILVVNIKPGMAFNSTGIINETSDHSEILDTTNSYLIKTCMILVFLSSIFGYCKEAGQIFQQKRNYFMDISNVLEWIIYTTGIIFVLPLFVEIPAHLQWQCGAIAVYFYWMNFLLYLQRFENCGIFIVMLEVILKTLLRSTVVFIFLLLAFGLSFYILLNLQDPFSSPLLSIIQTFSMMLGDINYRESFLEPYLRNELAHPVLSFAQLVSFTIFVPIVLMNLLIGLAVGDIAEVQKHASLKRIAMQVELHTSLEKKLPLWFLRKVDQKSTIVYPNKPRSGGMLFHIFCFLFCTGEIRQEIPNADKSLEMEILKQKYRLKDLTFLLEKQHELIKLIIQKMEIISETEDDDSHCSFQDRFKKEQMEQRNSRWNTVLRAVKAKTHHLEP

Row | Structure (SMILES) | IC50 [1] | IC50
1 | O=C(c1cc(-c2ccncc2)n(-c2cc(C(F)(F)F)cc(C(F)(F)F)c2)n1)N1CCC2(CC1)C(=O)NCN2c1ccccc1 [Compound 158] | 5 to 25 µM | 
2 | CC1COC2(CCN(C(=O)c3cc(-c4ccncc4)n(-c4ccc(C(F)(F)F)cc4)n3)CC2)O1 (centres unmarked) [Compound 71] |  | > 25 µM
3 | O=C(c1cc(-c2ccncc2)n(-c2ccccc2)n1)N1CCC(N2C(=O)OC[C@H]2c2ccccc2)CC1 [Compound 173] | > 25 µM | 
4 | O=C(c1cc(-c2cccnc2)n(-c2ccc(F)c(C(F)(F)F)c2)n1)N1CCC(N2Cc3ccc(F)cc3NC2=O)CC1 [Compound 290] | 0.001 to 5 µM | 
5 | O=C(c1cc(-c2cnccn2)n(-c2ccc(F)c(C(F)(F)F)c2)n1)N1CCC(n2c(=O)[nH]c3ccc(F)c(F)c32)CC1 [Compound 305] | 0.001 to 5 µM | 
6 | CC(C)(C)c1ccc(-n2nc(C(=O)N3CCC4(CC3)C(=O)NCN4c3ccc(F)c(F)c3)cc2-c2cccnc2)cc1 [Compound 217] | 0.001 to 5 µM | 
7 | O=C(c1cc(-c2ccncc2)n(-c2ccc(C(F)(F)F)cc2)n1)N1CCC(N2C(=O)Cc3ccccc32)CC1 [Compound 54] |  | > 25 µM
8 | O=C(c1cc(-c2ccncc2)n(-c2ccc(C(F)(F)F)cc2)n1)N1CCC2(CC1)C(=O)NCN2c1ccc(Cl)cc1 [Compound 56] | > 25 µM | 
9 | O=C1Nc2cc(F)ccc2C2(CCN(C(=O)c3cc(-c4cccnc4)n(-c4ccc(F)c(C(F)(F)F)c4)n3)CC2)O1 [Compound 278] | 0.001 to 5 µM | 
10 | CN1C(=O)COc2cc(NC(=O)c3cc(-c4ccncc4)n(-c4cnccn4)n3)ccc21 [Compound 131] | > 25 µM | 
11 | O=C(c1cc(-c2ccncc2)n(-c2cc(F)c(F)c(F)c2)n1)N1CCC(n2c(=O)[nH]c3cc(C(F)(F)F)ccc32)CC1 [Compound 176] | 5 to 25 µM | 
12 | N#Cc1ccc2[nH]c(=O)n(C3CCN(C(=O)c4cc(-c5cccnc5)n(-c5ccc(C#N)c(F)c5)n4)CC3)c2c1 [Compound 328] | 0.001 to 5 µM | 
13 | O=C(c1cc(-c2cccnc2)n(-c2ccc(C(F)(F)F)c(F)c2)n1)N1CCC2(CC1)C(=O)NCN2c1ccc(F)c(F)c1 [Compound 181] | 0.001 to 5 µM | 
14 | CC1CN(C(=O)c2cc(-c3cccnc3)n(-c3cc(F)c(F)c(F)c3)n2)CC(C)C1n1c(=O)[nH]c2ccc(F)c(F)c21 (centres unmarked) [Compound 207] | > 25 µM | 
15 | O=C(Nc1ccc2c(c1)COC2=O)c1cc(-c2ccncc2)n(-c2cnccn2)n1 [Compound 134] | > 25 µM | 
16 | Cc1cc(N2CNC(=O)C23CCN(C(=O)c2cc(-c4cccnc4)n(-c4cc(F)c(F)c(F)c4)n2)CC3)cc(C)c1F [Compound 204] | 0.001 to 5 µM | 
17 | O=C1CSC2(CCN(C(=O)c3cc(-c4ccncc4)n(-c4ccc(F)c(F)c4)n3)CC2)N1 [Compound 90] | > 25 µM | 
18 | O=C(c1cc(-c2cccnc2)n(-c2ccc(F)c(C(F)(F)F)c2)n1)N1CCC(n2c(=S)[nH]c3ccc(F)c(F)c32)CC1 [Compound 291] | 0.001 to 5 µM | 
19 | O=C(c1cc(-c2cccnc2)n(-c2ccc(F)c(C(F)(F)F)c2)n1)N1C2CCC1CC1(C2)C(=O)NCN1c1ccc(F)cc1 (centres unmarked) [Compound 333] |  | 0.001 to 5 µM
20 | O=C(c1cc(-c2ccncc2)n(-c2ccccc2)n1)N1CCC2(CC1)CC(F)(F)CO2 [Compound 16] | 5 to 25 µM | 
21 | O=C(c1cc(-c2cccnc2)n(-c2ccc(C(F)(F)F)c(F)c2)n1)N1CCC2(CC1)C(=O)NCN2c1ccc(I)cc1 [Compound 183] | > 25 µM | 
22 | CC1COC2(CCN(C(=O)c3cc(-c4ccncc4)n(-c4ccc(C(F)(F)F)c(F)c4)n3)CC2)O1 (centres unmarked) [Compound 114] |  | > 25 µM
23 | O=C(c1cc(-c2ccccn2)n(-c2ccc(C(F)(F)F)c(F)c2)n1)N1CCC2(CC1)C(=O)NCN2c1ccc(F)cc1 [Compound 264] | 5 to 25 µM | 
24 | O=C1OC2(CCN(C(=O)c3cc(-c4ccncc4)n(-c4ccccc4)n3)CC2)c2ccccc21 [Compound 171] | > 25 µM | 
25 | CN1C(=O)COc2cc(NC(=O)c3cc(-c4ccncc4)n(-c4ccc(C(F)(F)F)c(F)c4)n3)ccc21 [Compound 110] | > 25 µM | 
26 | N#Cc1ccc(-n2nc(C(=O)N3CCC(n4c(=O)[nH]c5ccc(F)c(F)c54)CC3)cc2-c2cccnc2)cc1C(F)(F)F [Compound 284] | 0.001 to 5 µM | 
